{"source": "ChEMBL document CHEMBL2034876", "about": "“Diversity-Oriented Synthesis Yields a Novel Lead for the Treatment of Malaria” (ACS Med Chem Lett, 2012)", "data": [{"tested_on": "Plasmodium falciparum", "assay": "Antimalarial activity against asexual blood stage form of Plasmodium falciparum Dd2 infected in human erythrocytes after 72 hrs by DAPI staining", "type": "functional", "conditions": "Dd2, 72 h", "units": {"GI50": "µM"}, "values": [{"smiles": "COc1ccc(COCCN2C[C@@H](C)[C@H](CN(C)S(=O)(=O)c3ccc(F)cc3)OCCCC[C@H](C)Oc3ccc(NC(=O)Nc4ccccc4)cc3C2=O)cc1", "GI50": 0.055}, {"smiles": "C[C@@H]1CN([C@@H](C)COC(=O)C(C)(C)C)C(=O)c2cc(NC(=O)Nc3ccccc3)ccc2O[C@@H](C)CCCCO[C@H]1CN(C)S(=O)(=O)c1ccc(F)cc1", "GI50": 0.0073}, {"smiles": "CNC[C@H](C)N1C[C@@H](C)[C@H](CN(C)S(=O)(=O)c2ccc(F)cc2)OCCCC[C@H](C)Oc2ccc(NC(=O)Nc3ccccc3)cc2C1=O", "GI50": 0.079}, {"smiles": "C[C@@H]1CN([C@@H](C)CO)C(=O)c2cc(NC(=O)Nc3ccccc3)ccc2O[C@@H](C)CCCCO[C@H]1CN(C)C(=O)OC(C)(C)C", "GI50": 1.4}, {"smiles": "C[C@@H]1CN([C@@H](C)CO)C(=O)c2cc(NC(=O)Nc3ccccc3)ccc2O[C@@H](C)CCCCO[C@H]1CN(C)C(=O)c1ccccc1", "GI50": 2.6}, {"smiles": "C[C@@H]1CN([C@@H](C)CO)C(=O)c2cc(NC(=O)Nc3ccccc3)ccc2O[C@@H](C)CCCCO[C@H]1CN(C)S(=O)(=O)c1ccccc1F", "GI50": 1.1}, {"smiles": "C[C@@H]1CN([C@@H](C)CO)C(=O)c2cc(NC(=O)Nc3ccccc3)ccc2O[C@@H](C)CCCCO[C@H]1CN(C)C(=O)Oc1ccccc1", "GI50": "> 5"}, {"smiles": "COCOC[C@H](C)N1C[C@@H](C)[C@H](CN(C)S(=O)(=O)c2ccc(F)cc2)OCCCC[C@H](C)Oc2ccc(NC(=O)Nc3ccccc3)cc2C1=O", "GI50": 0.0082}, {"smiles": "C[C@@H]1CN([C@@H](C)CO)C(=O)c2cc(NS(=O)(=O)c3ccccc3)ccc2O[C@@H](C)CCCCO[C@H]1CN(C)S(=O)(=O)c1ccc(F)cc1", "GI50": 2.4}, {"smiles": "C[C@@H]1CN([C@@H](C)CO)C(=O)c2cc(NC(=O)Nc3ccccc3)ccc2O[C@@H](C)CCCCO[C@H]1CN(C)S(=O)(=O)c1ccccc1", "GI50": 0.35}, {"smiles": "C[C@@H]1CN([C@@H](C)CN=[N+]=[N-])C(=O)c2cc(NC(=O)Nc3ccccc3)ccc2O[C@@H](C)CCCCO[C@H]1CN(C)S(=O)(=O)c1ccc(F)cc1", "GI50": 0.0032}, {"smiles": "COCCOC(=O)N(C)C[C@@H]1OCCCC[C@H](C)Oc2ccc(NC(=O)Nc3ccccc3)cc2C(=O)N([C@@H](C)CO)C[C@H]1C", "GI50": "> 5"}, {"smiles": "C[C@@H]1CN([C@@H](C)CO)C(=O)c2cc(N(C)C)ccc2O[C@@H](C)CCCCO[C@H]1CN(C)S(=O)(=O)c1ccc(F)cc1", "GI50": "> 5"}, {"smiles": "Cc1noc(C)c1NC(=O)Nc1ccc2c(c1)C(=O)N([C@@H](C)CO)C[C@@H](C)[C@H](CN(C)S(=O)(=O)c1ccc(F)cc1)OCCCC[C@H](C)O2", "GI50": 0.24}, {"smiles": "C[C@@H]1CN([C@@H](C)CO)C(=O)c2cc(NC(=O)Nc3ccccc3)ccc2O[C@@H](C)CCCCO[C@H]1CN(C)Cc1ccccc1", "GI50": 1.1}, {"smiles": "C[C@@H]1CN([C@@H](C)CN)C(=O)c2cc(NC(=O)Nc3ccccc3)ccc2O[C@@H](C)CCCCO[C@H]1CN(C)S(=O)(=O)c1ccc(F)cc1", "GI50": 0.37}, {"smiles": "COc1ccc(COC[C@@H](C)N2C[C@@H](C)[C@H](CN(C)S(=O)(=O)c3ccc(F)cc3)OCCCC[C@H](C)Oc3ccc(NC(=O)Nc4ccccc4)cc3C2=O)cc1", "GI50": 0.036}, {"smiles": "C[C@@H]1CN([C@@H](C)COC(=O)c2ccccc2)C(=O)c2cc(NC(=O)Nc3ccccc3)ccc2O[C@@H](C)CCCCO[C@H]1CN(C)S(=O)(=O)c1ccc(F)cc1", "GI50": 0.015}, {"smiles": "C[C@@H]1CN([C@@H](C)CO)C(=O)c2cc(NC(=O)Nc3ccccc3)ccc2O[C@@H](C)CCCCO[C@H]1CN(C)Cc1ccc(F)cc1", "GI50": 4.3}, {"smiles": "COc1ccc(S(=O)(=O)N(C)C[C@@H]2OCCCC[C@H](C)Oc3ccc(NC(=O)Nc4ccccc4)cc3C(=O)N([C@@H](C)CO)C[C@H]2C)cc1", "GI50": 0.16}, {"smiles": "COc1ccc(COC[C@H](C)N2C[C@@H](C)[C@H](CN(C)S(=O)(=O)c3ccc(F)cc3)OCCCC[C@H](C)Oc3ccc(NC(=O)Nc4ccccc4)cc3C2=O)cc1", "GI50": 0.00018}, {"smiles": "C[C@@H]1CN([C@@H](C)CO)C(=O)c2cc(N)ccc2O[C@@H](C)CCCCO[C@H]1CN(C)S(=O)(=O)c1ccc(F)cc1", "GI50": 0.99}, {"smiles": "C[C@@H]1CN([C@@H](C)CO)C(=O)c2cc(Nc3nc4ccccc4o3)ccc2O[C@@H](C)CCCCO[C@H]1CN(C)S(=O)(=O)c1ccc(F)cc1", "GI50": 0.58}, {"smiles": "C[C@@H]1CN([C@@H](C)CO)C(=O)c2cc(NC(=O)Nc3ccccc3)ccc2O[C@@H](C)CCCCO[C@H]1CN(C)S(=O)(=O)c1cccnc1", "GI50": "> 5"}, {"smiles": "C[C@@H]1CN([C@@H](C)CO)C(=O)c2cc(NC(=O)Nc3ccccc3)ccc2O[C@@H](C)CCCCO[C@H]1CN(C)S(=O)(=O)c1ccc(C(F)(F)F)cc1", "GI50": 0.877}, {"smiles": "C[C@@H]1CN(CCO)C(=O)c2cc(NC(=O)Nc3ccccc3)ccc2O[C@@H](C)CCCCO[C@H]1CN(C)S(=O)(=O)c1ccc(F)cc1", "GI50": 0.64}, {"smiles": "CC(C)NC(=O)Nc1ccc2c(c1)C(=O)N([C@@H](C)CO)C[C@@H](C)[C@H](CN(C)S(=O)(=O)c1ccc(F)cc1)OCCCC[C@H](C)O2", "GI50": 0.4}]}, {"tested_on": "not listed separately", "assay": "Aqueous solubility of the compound", "type": "physicochemical", "conditions": "water", "units": {"solubility": "µM"}, "values": [{"smiles": "C[C@@H]1CN([C@@H](C)COC(=O)C(C)(C)C)C(=O)c2cc(NC(=O)Nc3ccccc3)ccc2O[C@@H](C)CCCCO[C@H]1CN(C)S(=O)(=O)c1ccc(F)cc1", "solubility": "< 0.5"}, {"smiles": "C[C@@H]1CN([C@@H](C)CO)C(=O)c2cc(NC(=O)Nc3ccccc3)ccc2O[C@@H](C)CCCCO[C@H]1CN(C)C(=O)Oc1ccccc1", "solubility": 1.2}]}, {"target": "T1, Dihydroorotate dehydrogenase (Plasmodium falciparum) (UniProt Q54A96)", "T1 sequence (whole entry)": "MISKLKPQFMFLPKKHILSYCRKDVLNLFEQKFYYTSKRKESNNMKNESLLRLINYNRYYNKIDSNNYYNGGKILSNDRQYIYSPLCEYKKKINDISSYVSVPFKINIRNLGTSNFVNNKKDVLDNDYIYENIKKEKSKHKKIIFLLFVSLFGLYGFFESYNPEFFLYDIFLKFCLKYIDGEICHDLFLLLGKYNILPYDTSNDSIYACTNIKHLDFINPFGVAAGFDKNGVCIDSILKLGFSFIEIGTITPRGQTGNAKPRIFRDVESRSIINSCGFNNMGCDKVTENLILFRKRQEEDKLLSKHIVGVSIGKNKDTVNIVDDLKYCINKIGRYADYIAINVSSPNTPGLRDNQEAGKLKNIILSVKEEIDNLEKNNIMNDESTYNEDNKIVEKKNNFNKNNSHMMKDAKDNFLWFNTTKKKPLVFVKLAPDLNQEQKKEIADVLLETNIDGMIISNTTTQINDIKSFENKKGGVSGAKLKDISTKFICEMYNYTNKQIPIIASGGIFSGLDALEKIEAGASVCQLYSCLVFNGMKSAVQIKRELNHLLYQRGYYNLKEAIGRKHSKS", "assay": "Inhibition of Plasmodium falciparum DHODH-mediated 2,6-dichloroindophenol reduction after 20 mins by spectrophotometry", "conditions": "not given", "units": {"INH": "µM"}, "values": [{"smiles": "C[C@@H]1CN([C@@H](C)CN(C)C)C(=O)c2cc(NC(=O)Nc3ccccc3)ccc2O[C@@H](C)CCCCO[C@H]1CN(C)S(=O)(=O)c1ccc(F)cc1", "INH": "> 30"}]}, {"tested_on": "Plasmodium berghei", "assay": "Inhibition of Plasmodium berghei DHODH-mediated 2,6-dichloroindophenol reduction after 20 mins by spectrophotometry", "conditions": "not given", "units": {"INH": "µM"}, "values": [{"smiles": "C[C@@H]1CN([C@@H](C)CN(C)C)C(=O)c2cc(NC(=O)Nc3ccccc3)ccc2O[C@@H](C)CCCCO[C@H]1CN(C)S(=O)(=O)c1ccc(F)cc1", "INH": "> 30"}]}, {"tested_on": "Plasmodium vivax", "assay": "Inhibition of Plasmodium vivax DHODH-mediated 2,6-dichloroindophenol reduction after 20 mins by spectrophotometry", "conditions": "not given", "units": {"INH": "µM"}, "values": [{"smiles": "C[C@@H]1CN([C@@H](C)CN(C)C)C(=O)c2cc(NC(=O)Nc3ccccc3)ccc2O[C@@H](C)CCCCO[C@H]1CN(C)S(=O)(=O)c1ccc(F)cc1", "INH": "> 30"}]}, {"target": "Dihydroorotate dehydrogenase (quinone), mitochondrial (Homo sapiens) (UniProt Q02127)", "sequence (Q02127 whole entry)": "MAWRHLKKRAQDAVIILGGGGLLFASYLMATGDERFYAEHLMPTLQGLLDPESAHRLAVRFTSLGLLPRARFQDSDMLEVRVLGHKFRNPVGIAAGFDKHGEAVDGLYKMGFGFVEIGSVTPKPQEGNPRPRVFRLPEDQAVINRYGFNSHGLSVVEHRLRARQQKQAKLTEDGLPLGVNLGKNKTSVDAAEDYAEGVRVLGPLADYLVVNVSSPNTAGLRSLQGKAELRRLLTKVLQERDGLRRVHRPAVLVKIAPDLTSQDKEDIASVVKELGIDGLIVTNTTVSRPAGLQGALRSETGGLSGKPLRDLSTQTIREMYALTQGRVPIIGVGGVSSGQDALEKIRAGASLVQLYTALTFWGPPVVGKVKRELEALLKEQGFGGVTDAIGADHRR", "assay": "Inhibition of human DHODH-mediated 2,6-dichloroindophenol reduction after 20 mins by spectrophotometry", "conditions": "not given", "units": {"INH": "µM"}, "values": [{"smiles": "C[C@@H]1CN([C@@H](C)CN(C)C)C(=O)c2cc(NC(=O)Nc3ccccc3)ccc2O[C@@H](C)CCCCO[C@H]1CN(C)S(=O)(=O)c1ccc(F)cc1", "INH": "> 30"}]}]}
